# In patent US20220304978A1, “INHIBITING MESANGIAL CELL ACTIVATION” (Chinook Therapeutics, Inc., priority 2019, published 2022):
# Test system: kidney tissue of g-ddY mice
# Assay: RNA-seq differential gene expression in kidney tissue of g-ddY mice
# Assay type: in vivo, mouse
# Method: RNA isolation and sequencing libraries were generated using standard protocols. Sequencing was performed using an Illumina NextSeq500 using manufacturer's instructions with a read length of 75 bp and a read depth of 30 million. Raw data was assembled to FASTQ files. Following QC analysis, high quality sequencing reads (e.g., reads with a Phred quality score >36) were aligned to the mouse reference genome (GRCm38-mm10) using the default parameters of the align algorithm and transcript count tables of each library was generated using the default parameters of the featureCounts algorithm of the RSubread package (Liao Y, Smyth GK, Shi W, 2019). High quality sequencing reads mapped to 27,129 genes. Following additional QC of low count filtering (i.e. transcripts <10 counts across all samples), 16,207 genes were identified and used for further analysis. The remaining sequencing read counts of the included 16,207 genes were normalized to library size, log-transformed, and were quantified as counts per million (CPM). Select RNA-seq counts were validated using qPCR. Sequencing read counts (CPM) were used for identification of differential gene expression between specified populations using the quasi-likelihood methodology of the edgeR package. […] MA plots were generated using edgeR. Heatmaps and other plots were generated using the gplots and ggplot2 package.
# [1] = 20 mg/kg/day vs control, cell proliferation signaling
# [2] = 20 mg/kg/day vs control, inflammatory response signaling
# [3] = 20 mg/kg/day vs control, mesangial cell signature
# [4] = 30 mg/kg/day vs control, IL6 signaling
# [5] = 30 mg/kg/day vs control, NF-kB signaling
# [6] = 30 mg/kg/day vs control, PDGF signaling
# [7] = 30 mg/kg/day vs control, cell proliferation signaling
# [8] = 30 mg/kg/day vs control, inflammatory response signaling
# [9] = 30 mg/kg/day vs control, mesangial cell signature
compound,measurement,setting,value
"CCCCN(CCCC)C(=O)CN1C[C@H](c2ccc3c(c2)OCO3)[C@@H](C(=O)O)[C@@H]1c1ccc(OC)cc1 [atrasentan, (2R,3R,4S)-4-(1,3-benzodioxol-5-yl)-1-[2-(dibutylamino)-2-oxoethyl]-2-(4-methoxyphenyl)pyrrolidine-3-carboxylic acid]",Rapgef5 logFC,[1],−0.3804
same,Rhot2 logFC,[1],0.4576
same,Slc7a1 logFC,[1],−0.7304
same,Slc12a2 logFC,[1],−0.3373
same,Slc38a1 logFC,[1],−0.6989
same,Smc3 logFC,[1],−0.1696
same,Sorbs2 logFC,[1],−0.4717
same,Tiam1 logFC,[1],−0.9494
same,Tuba4a logFC,[1],0.2861
same,Vcl logFC,[1],−0.3317
same,Ythdc1 logFC,[1],−0.0815
same,Btg2 logFC,[2],−0.6974
same,Cdkn1a logFC,[2],0.2546
same,Chst2 logFC,[2],−0.368
same,Csf1 logFC,[2],−1.089
same,Edn1 logFC,[2],−1.328
same,Eif2ak2 logFC,[2],−0.3002
same,F3 logFC,[2],−0.5235
same,Gabbr1 logFC,[2],−0.1316
same,Hpn logFC,[2],0.4187
same,Il1r1 logFC,[2],−0.8263
same,Ly6e logFC,[2],0.2436
same,Nfkb1 logFC,[2],−0.616
same,Nfkbia logFC,[2],−0.7041
same,Rnf144b logFC,[2],−0.9765
same,Ros1 logFC,[2],−1.992
same,Serpine1 logFC,[2],−1.501
same,Slc4a4 logFC,[2],0.5245
same,Slc7a1 logFC,[2],−0.7304
same,Slc7a2 logFC,[2],−1.336
same,Slc11a2 logFC,[2],0.35
same,Ahnak logFC,[3],−0.7128
same,Akap12 logFC,[3],−0.5404
same,Akt3 logFC,[3],−0.4673
same,Aldob logFC,[3],0.4923
same,Ankrd12 logFC,[3],−0.2463
same,C7 logFC,[3],−1.277
same,Cald1 logFC,[3],−0.5361
same,Cblb logFC,[3],−0.2068
same,Ebf1 logFC,[3],−0.3512
same,Epb41l2 logFC,[3],−0.6149
same,Ets1 logFC,[3],−0.3065
same,Fchsd2 logFC,[3],−0.1882
same,Frmd4a logFC,[3],−0.3955
same,Gata3 logFC,[3],−0.4924
same,Gpx3 logFC,[3],0.71
same,Igfbp7 logFC,[3],0.1088
same,Lama2 logFC,[3],−0.4437
same,Maml2 logFC,[3],−0.2311
same,Mef2c logFC,[3],−0.6302
same,Meis1 logFC,[3],−0.3593
same,Myh9 logFC,[3],−0.4543
same,Myo1e logFC,[3],−0.292
same,Nbea logFC,[3],−0.1933
same,Nfkbia logFC,[3],−0.7041
same,Nr4a1 logFC,[3],−1.621
same,Piezo2 logFC,[3],−0.6148
same,Postn logFC,[3],−2.293
same,Pparg logFC,[3],−0.5616
same,Ppp1r12a logFC,[3],−0.2135
same,Prkg1 logFC,[3],−0.328
same,Psd3 logFC,[3],−0.5227
same,Ptprm logFC,[3],−0.2678
same,Rapgef5 logFC,[3],−0.3804
same,Raph1 logFC,[3],−0.3852
same,Rbms3 logFC,[3],−0.7192
same,Robo1 logFC,[3],−0.7261
same,Stard13 logFC,[3],−0.6367
same,Tacc1 logFC,[3],−0.3693
same,Tcf4 logFC,[3],−0.224
same,Tjp1 logFC,[3],−0.3054
same,Tns3 logFC,[3],−0.3043
same,Unc5c logFC,[3],0.3685
same,Utrn logFC,[3],−0.5143
same,Zeb2 logFC,[3],−0.6492
same,Cntfr logFC,[4],−0.9365
same,Csf1 logFC,[4],−1.26
same,Il1r1 logFC,[4],−0.6078
same,Il2ra logFC,[4],−1.58
same,Map3k8 logFC,[4],−0.8664
same,Ackr3 logFC,[5],0.5485
same,Btg1 logFC,[5],−0.4825
same,Btg2 logFC,[5],−0.6689
same,Ccn1 logFC,[5],−0.9198
same,Ccnd1 logFC,[5],0.6947
same,Cdkn1a logFC,[5],0.6369
same,Csf1 logFC,[5],−1.26
same,Dnajb4 logFC,[5],−0.7534
same,Edn1 logFC,[5],−1.688
same,Efna1 logFC,[5],0.7278
same,Ehd1 logFC,[5],0.4138
same,F3 logFC,[5],−0.564
same,Fosl2 logFC,[5],−1.205
same,Gem logFC,[5],−1.912
same,Id2 logFC,[5],0.5394
same,Ifit2 logFC,[5],−0.6119
same,Jag1 logFC,[5],−0.6784
same,Klf2 logFC,[5],−0.7182
same,Klf4 logFC,[5],−0.9474
same,Map3k8 logFC,[5],−0.8664
same,Nfat5 logFC,[5],−0.5845
same,Nfkb1 logFC,[5],−0.6498
same,Nfkbia logFC,[5],−0.7307
same,Nr4a1 logFC,[5],−1.803
same,Nr4a2 logFC,[5],−1.728
same,Nr4a3 logFC,[5],−1.939
same,Per1 logFC,[5],−0.9307
same,Pfkfb3 logFC,[5],−1.485
same,Pnrcl logFC,[5],0.4856
same,Rel logFC,[5],−1.298
same,Rhob logFC,[5],−0.7265
same,Serpine1 logFC,[5],−1.387
same,Snn logFC,[5],0.4725
same,Spsb1 logFC,[5],−1.097
same,Tnfaip8 logFC,[5],0.517
same,Traf1 logFC,[5],−1.371
same,Trib1 logFC,[5],−1.074
same,Zbtb10 logFC,[5],−0.2912
same,Hras logFC,[6],0.4354
same,Map3k1 logFC,[6],−0.7636
same,Nfkb1 logFC,[6],−0.6498
same,Nfkbia logFC,[6],−0.7307
same,Pdgfb logFC,[6],−0.5424
same,Pdgfra logFC,[6],−0.7094
same,Pik3cg logFC,[6],−0.7287
same,Pik3r1 logFC,[6],−0.6223
same,Pla2g4a logFC,[6],−0.9024
same,Tiam1 logFC,[6],−1.227
same,Arid4a logFC,[7],−0.5719
same,Atrx logFC,[7],−0.4031
same,Bcar1 logFC,[7],0.4182
same,Ccdc88a logFC,[7],−0.7206
same,Ccnd1 logFC,[7],0.6947
same,Cep192 logFC,[7],−0.43
same,Cntrl logFC,[7],−0.5569
same,Dmd logFC,[7],−0.405
same,Epb41l2 logFC,[7],−0.7021
same,Fgd6 logFC,[7],−0.6983
same,Flna logFC,[7],−0.6183
same,Itsn1 logFC,[7],−0.5129
same,Kmt5a logFC,[7],0.4169
same,Meis1 logFC,[7],−0.4934
same,Myh9 logFC,[7],−0.6171
same,Myh10 logFC,[7],−0.5242
same,Myo1e logFC,[7],−0.4177
same,Nin logFC,[7],−0.7352
same,Ophn1 logFC,[7],−0.7129
same,Rapgef5 logFC,[7],−0.4225
same,Rhot2 logFC,[7],0.5432
same,Slc7a1 logFC,[7],−0.7952
same,Slc12a2 logFC,[7],−0.3306
same,Slc38a1 logFC,[7],−0.8108
same,Smc3 logFC,[7],−0.4558
same,Sorbs2 logFC,[7],−0.3601
same,Tiam1 logFC,[7],−1.227
same,Tuba4a logFC,[7],0.4958
same,Vcl logFC,[7],−0.3604
same,Ythdc1 logFC,[7],−0.3579
same,Btg2 logFC,[8],−0.6689
same,Cdkn1a logFC,[8],0.6369
same,Chst2 logFC,[8],−0.9214
same,Csf1 logFC,[8],−1.26
same,Edn1 logFC,[8],−1.688
same,Eif2ak2 logFC,[8],−0.5033
same,F3 logFC,[8],−0.564
same,Gabbr1 logFC,[8],−0.5762
same,Hpn logFC,[8],0.6197
same,Il1r1 logFC,[8],−0.6078
same,Ly6e logFC,[8],0.6857
same,Nfkb1 logFC,[8],−0.6498
same,Nfkbia logFC,[8],−0.7307
same,Rnf144b logFC,[8],−0.8848
same,Ros1 logFC,[8],−1.985
same,Serpine1 logFC,[8],−1.387
same,Slc4a4 logFC,[8],0.6146
same,Slc7a1 logFC,[8],−0.7952
same,Slc7a2 logFC,[8],−0.9808
same,Slc11a2 logFC,[8],0.4205
same,Ahnak logFC,[9],−1.013
same,Akap12 logFC,[9],−0.8211
same,Akt3 logFC,[9],−0.4843
same,Aldob logFC,[9],0.748
same,Ankrd12 logFC,[9],−0.4726
same,C7 logFC,[9],−1.079
same,Cald1 logFC,[9],−0.506
same,Cblb logFC,[9],−0.4288
same,Ebf1 logFC,[9],−0.4506
same,Epb41l2 logFC,[9],−0.7021
same,Ets1 logFC,[9],−0.3379
same,Fchsd2 logFC,[9],−0.3772
same,Frmd4a logFC,[9],−0.5742
same,Gata3 logFC,[9],−0.5216
same,Gpx3 logFC,[9],1.122
same,Igfbp7 logFC,[9],0.4259
same,Lama2 logFC,[9],−0.4895
same,Maml2 logFC,[9],−0.4441
same,Mef2c logFC,[9],−0.6869
same,Meis1 logFC,[9],−0.4934
same,Myh9 logFC,[9],−0.6171
same,Myo1e logFC,[9],−0.4177
same,Nbea logFC,[9],−0.432
same,Nfkbia logFC,[9],−0.7307
same,Nr4a1 logFC,[9],−1.803
same,Piezo2 logFC,[9],−0.8237
same,Postn logFC,[9],−1.247
same,Pparg logFC,[9],−0.6781
same,Ppp1r12a logFC,[9],−0.3826
same,Prkg1 logFC,[9],−0.6356
same,Psd3 logFC,[9],−0.5843
same,Ptprm logFC,[9],−0.5453
same,Rapgef5 logFC,[9],−0.4225
same,Raph1 logFC,[9],−0.5358
same,Rbms3 logFC,[9],−0.8895
same,Robo1 logFC,[9],−0.6009
same,Stard13 logFC,[9],−0.8466
same,Tacc1 logFC,[9],−0.4924
same,Tcf4 logFC,[9],−0.3055
same,Tjp1 logFC,[9],−0.3989
same,Tns3 logFC,[9],−0.4522
same,Unc5c logFC,[9],0.9517
same,Utrn logFC,[9],−0.7697
same,Zeb2 logFC,[9],−0.6778
